Test results reported in ChEMBL document CHEMBL1201862, “PubChem BioAssay data set” (2004).
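Following 48 hours of exposure in 96-well plates, responses at five concentrations were used to interpolate endpoints linearly. GI50: concentration for 50% inhibition of growth.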 Calls of active or inactive are those of the source. Cut-off read from the data, not from the text of the source: active = GI50 up to about 1.1 µM and inactive = higher.

Assays:
Test in all cases: inhibition of tumour cell growth, NCI panel, 48 h
T47D = system: T47D
HOP-62 = system: HOP-62
HL-60 = system: HL-60
SN12C = system: SN12C
SK-MEL-28 = system: SK-MEL-28
NCI-H460 = system: NCI-H460
MDA-MB-435 = system: MDA-MB-435
HOP-92 = system: HOP-92
TK-10 = system: TK-10
HT-29 = system: HT-29
SW-620 = system: SW-620
NCI-H23 = system: NCI-H23
A549 = system: A549
HCT-116 = system: HCT-116
A498 = system: A498
UACC-62 = system: UACC-62
UO-31 = system: UO-31
EKVX = system: EKVX
SF-295 = system: SF-295
NCI/ADR-RES = system: NCI/ADR-RES
OVCAR-5 = system: OVCAR-5
K562 = system: K562
RPMI-8226 = system: RPMI-8226
BT-549 = system: BT-549
MCF7 = system: MCF7
LOX IMVI = system: LOX IMVI
OVCAR-8 = system: OVCAR-8
IGROV-1 = system: IGROV-1
786-0 = system: 786-0
ACHN = system: ACHN
NCI-H522 = system: NCI-H522
Hs-578T = system: Hs-578T
HCC 2998 = system: HCC 2998
KM12 = system: KM12
M14 = system: M14
CCRF-CEM = system: CCRF-CEM
CAKI-1 = system: CAKI-1
SF-539 = system: SF-539
SK-MEL-5 = system: SK-MEL-5
SK-OV-3 = system: SK-OV-3
NCI-H226 = system: NCI-H226
SR = system: SR
SNB-75 = system: SNB-75
SNB-19 = system: SNB-19
MDA-N = system: MDA-N
SK-MEL-2 = system: SK-MEL-2
U-251 = system: U-251
MOLT-4 = system: MOLT-4
OVCAR-4 = system: OVCAR-4
Malme-3M = system: Malme-3M
PC-3 = system: PC-3
MDA-MB-231 = system: MDA-MB-231
RXF 393 = system: RXF 393
UACC-257 = system: UACC-257
HCT-15 = system: HCT-15
COLO 205 = system: COLO 205
SF-268 = system: SF-268
DU-145 = system: DU-145
OVCAR-3 = system: OVCAR-3

For `c1csc(-c2ccc(-c3ccsc3)s2)c1`, the GI50 (T47D) was > 27.4 µM (inactive), the GI50 (HOP-62) was > 100 µM (inactive) and the GI50 (HL-60) was > 100 µM (inactive). The GI50 (SN12C) was > 100 µM (inactive), the GI50 (SK-MEL-28) was > 100 µM (inactive) and the GI50 (NCI-H460) was > 100 µM (inactive). The GI50 (MDA-MB-435) was > 100 µM (inactive), the GI50 (HOP-92) was > 100 µM (inactive) and the GI50 (TK-10) was > 100 µM (inactive). The GI50 (HT-29) was > 100 µM (inactive), the GI50 (SW-620) was > 100 µM (inactive) and the GI50 (NCI-H23) was > 100 µM (inactive). The GI50 (A549) was > 100 µM (inactive), the GI50 (HCT-116) was > 100 µM (inactive) and the GI50 (A498) was > 100 µM (inactive). For the same compound, the GI50 (UACC-62) was > 100 µM (inactive), the GI50 (UO-31) was > 100 µM (inactive) and the GI50 (EKVX) was > 87.3 µM (inactive). The GI50 (SF-295) was > 100 µM (inactive), the GI50 (NCI/ADR-RES) was > 100 µM (inactive) and the GI50 (OVCAR-5) was > 100 µM (inactive). For the same compound, the GI50 (K562) was > 100 µM (inactive), the GI50 (RPMI-8226) was > 100 µM (inactive) and the GI50 (BT-549) was > 100 µM (inactive). For the same compound, the GI50 (MCF7) was > 100 µM (inactive), the GI50 (LOX IMVI) was > 100 µM (inactive) and the GI50 (OVCAR-8) was > 100 µM (inactive). For the same compound, the GI50 (IGROV-1) was > 100 µM (inactive), the GI50 (786-0) was > 100 µM (inactive) and the GI50 (ACHN) was > 100 µM (inactive). For the same compound, the GI50 (NCI-H522) was > 100 µM (inactive), the GI50 (Hs-578T) was 98.4 µM (inactive) and the GI50 (HCC 2998) was > 100 µM (inactive). The GI50 (KM12) was > 100 µM (inactive), the GI50 (M14) was > 100 µM (inactive) and the GI50 (CCRF-CEM) was > 100 µM (inactive). For the same compound, the GI50 (CAKI-1) was > 100 µM (inactive), the GI50 (SF-539) was 68.5 µM (inactive) and the GI50 (SK-MEL-5) was > 100 µM (inactive). For the same compound, the GI50 (SK-OV-3) was > 100 µM (inactive), the GI50 (NCI-H226) was > 75.5 µM (inactive) and the GI50 (SR) was > 100 µM (inactive). For the same compound, the GI50 (SNB-75) was 57.4 µM (inactive), the GI50 (SNB-19) was > 100 µM (inactive) and the GI50 (MDA-N) was > 100 µM (inactive). For the same compound, the GI50 (SK-MEL-2) was > 100 µM (inactive), the GI50 (U-251) was > 100 µM (inactive) and the GI50 (MOLT-4) was > 100 µM (inactive). The GI50 (OVCAR-4) was > 100 µM (inactive), the GI50 (Malme-3M) was > 100 µM (inactive) and the GI50 (PC-3) was 97.5 µM (inactive). For the same compound, the GI50 (MDA-MB-231) was > 100 µM (inactive), the GI50 (RXF 393) was > 87.9 µM (inactive) and the GI50 (UACC-257) was > 100 µM (inactive). For the same compound, the GI50 (HCT-15) was > 100 µM, the GI50 (COLO 205) was > 100 µM (inactive) and the GI50 (SF-268) was > 100 µM (inactive).
With `O=C(O)Cc1ccc(N2N=C(c3ccccc3)CC2=O)cc1` the GI50 (T47D) was > 100 µM (inactive), the GI50 (HOP-62) was > 100 µM (inactive) and the GI50 (HL-60) was > 100 µM (inactive). For the same compound, the GI50 (SN12C) was > 100 µM (inactive), the GI50 (SK-MEL-28) was > 100 µM (inactive) and the GI50 (NCI-H460) was > 100 µM (inactive). The GI50 (TK-10) was > 100 µM (inactive), the GI50 (HT-29) was > 100 µM (inactive) and the GI50 (SW-620) was > 100 µM (inactive). For the same compound, the GI50 (NCI-H23) was > 100 µM (inactive), the GI50 (DU-145) was > 100 µM (inactive) and the GI50 (HCT-116) was > 100 µM (inactive). The GI50 (A498) was > 100 µM (inactive), the GI50 (UACC-62) was > 100 µM (inactive) and the GI50 (UO-31) was > 100 µM (inactive). For the same compound, the GI50 (EKVX) was > 100 µM (inactive), the GI50 (SF-295) was > 100 µM (inactive) and the GI50 (NCI/ADR-RES) was > 100 µM (inactive). The GI50 (OVCAR-5) was > 100 µM (inactive), the GI50 (K562) was > 100 µM (inactive) and the GI50 (BT-549) was > 100 µM (inactive). The GI50 (MCF7) was > 100 µM (inactive), the GI50 (OVCAR-8) was > 100 µM (inactive) and the GI50 (IGROV-1) was > 100 µM (inactive). The GI50 (ACHN) was > 100 µM (inactive), the GI50 (NCI-H522) was > 100 µM (inactive) and the GI50 (Hs-578T) was > 100 µM (inactive). For the same compound, the GI50 (HCC 2998) was > 100 µM (inactive), the GI50 (KM12) was > 100 µM (inactive) and the GI50 (M14) was > 100 µM (inactive). The GI50 (CCRF-CEM) was > 100 µM (inactive), the GI50 (CAKI-1) was > 100 µM (inactive) and the GI50 (SK-MEL-5) was > 100 µM (inactive). For the same compound, the GI50 (SK-OV-3) was > 100 µM (inactive), the GI50 (NCI-H226) was > 100 µM (inactive) and the GI50 (SR) was > 100 µM (inactive). The GI50 (SNB-75) was > 100 µM (inactive), the GI50 (SNB-19) was > 100 µM (inactive) and the GI50 (MDA-N) was > 100 µM (inactive). For the same compound, the GI50 (SK-MEL-2) was 23.2 µM (inactive), the GI50 (U-251) was > 100 µM (inactive) and the GI50 (MOLT-4) was > 100 µM (inactive). The GI50 (OVCAR-4) was > 100 µM (inactive), the GI50 (Malme-3M) was 18.6 µM (inactive) and the GI50 (PC-3) was > 100 µM (inactive). For the same compound, the GI50 (MDA-MB-231) was > 100 µM (inactive), the GI50 (UACC-257) was > 100 µM (inactive) and the GI50 (HCT-15) was > 100 µM. The GI50 (COLO 205) was > 100 µM (inactive), the GI50 (SF-268) was > 100 µM (inactive) and the GI50 (OVCAR-3) was > 100 µM (inactive).
For `O=C(N/N=C1/C(=O)c2c3ccccc3cc3cccc1c23)c1cccc(Cl)c1`, the GI50 (HOP-62) was 28.9 µM (inactive), the GI50 (HL-60) was > 100 µM (inactive) and the GI50 (SN12C) was > 100 µM (inactive). The GI50 (SK-MEL-28) was > 100 µM (inactive), the GI50 (NCI-H460) was 79.4 µM (inactive) and the GI50 (MDA-MB-435) was > 100 µM (inactive). The GI50 (HOP-92) was > 100 µM (inactive), the GI50 (HT-29) was > 100 µM (inactive) and the GI50 (SW-620) was > 100 µM (inactive). The GI50 (NCI-H23) was > 100 µM (inactive), the GI50 (A549) was > 100 µM (inactive) and the GI50 (DU-145) was 70.3 µM (inactive). The GI50 (HCT-116) was > 100 µM (inactive), the GI50 (A498) was > 100 µM (inactive) and the GI50 (UACC-62) was 69.7 µM (inactive). For the same compound, the GI50 (NCI/ADR-RES) was > 100 µM (inactive), the GI50 (OVCAR-5) was > 100 µM (inactive) and the GI50 (K562) was > 100 µM (inactive). For the same compound, the GI50 (RPMI-8226) was > 100 µM (inactive), the GI50 (BT-549) was > 100 µM (inactive) and the GI50 (LOX IMVI) was > 100 µM (inactive). The GI50 (OVCAR-8) was > 100 µM (inactive), the GI50 (IGROV-1) was 2.78 µM (inactive) and the GI50 (786-0) was 56.6 µM (inactive). The GI50 (ACHN) was 33 µM (inactive), the GI50 (Hs-578T) was 16 µM (inactive) and the GI50 (HCC 2998) was > 100 µM (inactive). For the same compound, the GI50 (KM12) was > 100 µM (inactive), the GI50 (M14) was > 100 µM (inactive) and the GI50 (CCRF-CEM) was 67.6 µM (inactive). For the same compound, the GI50 (CAKI-1) was > 100 µM (inactive), the GI50 (SF-539) was 90.2 µM (inactive) and the GI50 (SK-MEL-5) was > 100 µM (inactive). The GI50 (SK-OV-3) was > 100 µM (inactive), the GI50 (NCI-H226) was > 100 µM (inactive) and the GI50 (SR) was > 100 µM (inactive). For the same compound, the GI50 (SNB-75) was > 100 µM (inactive), the GI50 (SNB-19) was 41.4 µM (inactive) and the GI50 (MDA-N) was > 100 µM (inactive). The GI50 (SK-MEL-2) was > 100 µM (inactive), the GI50 (U-251) was 94.8 µM (inactive) and the GI50 (MOLT-4) was 0.711 µM (active). For the same compound, the GI50 (OVCAR-4) was > 100 µM (inactive), the GI50 (PC-3) was > 100 µM (inactive) and the GI50 (MDA-MB-231) was > 100 µM (inactive). For the same compound, the GI50 (RXF 393) was > 100 µM (inactive), the GI50 (UACC-257) was > 100 µM (inactive) and the GI50 (HCT-15) was > 100 µM. For the same compound, the GI50 (COLO 205) was > 100 µM (inactive) and the GI50 (OVCAR-3) was > 100 µM (inactive).
